The values below come from patent USRE47689E1, “Compounds for treating spinal muscular atrophy” (PTC Therapeutics, Inc., priority 2011, dated 2019).

The test system of series [1] is SMN2 minigene (full length SMN2 minigene mRNA containing SMN2 exon 7). The experiment in a line: SMN2 minigene mRNA splicing RT-qPCR assay in cultured cells. Particulars: Homo sapiens, HEK293-H; HEK293H cells stably transfected with SMN2-A minigene; 24 hours; 7-point concentration curve; 1.5-fold relative to vehicle-treated cells; read-out: EC1.5x for production of full length SMN2 mRNA. The series is classed as cell-based, human. In a few lines: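 Read-out: full-length (exon 7-included) SMN2 minigene mRNA by multiplex RT-qPCR with GAPDH, efficiency-corrected (1+E)^−Ct, GAPDH-normalized and divided by vehicle. Stably transfected HEK293H cells, 24 h compound exposure, duplicates per concentration. Value is EC1.5x, reported as star ranges.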
A general note: Quantitative PCR measures a nucleic acid by following its amplification.

Another series concerns Smn protein. The experiment in a line: Smn protein assay in cultured cells (SMN HTRF). The series is classed as cell-based, human. Particulars: 48 hours; for EC1.5x (concentration giving 1.5-fold Smn protein increase): SMA Type 1 patient fibroblast cells (GM03813), 7-point concentration curve, SMN HTRF, concentration producing 1.5 times Smn protein vs DMSO vehicle control, read-out: EC1.5x for Smn protein expression; for maximum fold (Fold) increase of Smn protein: SMA patient fibroblast cells, 7-point concentration data, fold increase relative to vehicle control (SMN HTRF). In a few lines:
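Lysates in RIPA with protease inhibitors are incubated overnight at room temperature with HTRF anti-SMN antibodies. EC1.5x is derived from fold increase in ΔF over vehicle.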

The term melting point denotes the temperature of the solid-liquid transition. Take `Cc1nccn2cc(-c3cc4ccc(N5CCCNCC5)cc4oc3=O)cc12` [Compound 587, 7-(1,4-diazepan-1-yl)-3-(1-methylpyrrolo[1,2-a]pyrazin-7-yl)-2H-chromen-2-one]: the melting point was in the range of 210 to 213 °C. Moreover, in series [1], the EC (1.5-fold) was < 0.1 µM. In addition, in the series with Smn protein, the EC1.5x (concentration giving 1.5-fold Smn protein increase) was < 300 nM; the “maximum fold (Fold) increase of Smn protein” value (from here on “maximum fold (Fold) increase”) is “**** (fold increase between >1.5 and ≤1.65)”.

Consider `Cc1ccn2cc(-c3cc4ccc(N5CC6CCC5CN6)cc4oc3=O)nc2c1` (stereo not drawn) [Compound 597, 7-(2,5-diazabicyclo[2.2.2]oct-2-yl)-3-(7-methylimidazo[1,2-a]pyridin-2-yl)-2H-chromen-2-one], for which the melting point was 196 to 215 °C. Besides, in series [1], the EC (1.5-fold) is < 0.1 µM. In the series with Smn protein, the EC1.5x (concentration giving 1.5-fold Smn protein increase) was < 300 nM; the “maximum fold (Fold) increase” value is “**** (fold increase between >1.5 and ≤1.65)”.

The compound `Cc1cn2cc(-c3cc4ccc(CCCN5CCC[C@@H]5CO)cc4oc3=O)nc2c(C)n1` [Compound 883, 3-(6,8-dimethylimidazo[1,2-a]pyrazin-2-yl)-7-{3-[(2R)-2-(hydroxymethyl)pyrrolidin-1-yl]propyl}-2H-chromen-2-one] returned a melting point of 182 to 185 °C. For the same compound, the EC (1.5-fold) in series [1] was < 0.1 µM. Further, in the series with Smn protein, the EC1.5x (concentration giving 1.5-fold Smn protein increase) is < 300 nM and the “maximum fold (Fold) increase” value is listed as “***** (fold increase >1.65)”.

Turning to `Cc1cn2cc(-c3cc4ccc(O[C@@H]5CCNC5)cc4oc3=O)nc2s1.Cl.Cl` [Compound 325, 3-(2-methylimidazo[2,1-b][1,3]thiazol-6-yl)-7-[(3R)-pyrrolidin-3-yloxy]-2H-chromen-2-one hydrochloride (1:2)], the melting point lay within 230 to 235 °C. For the same compound, the EC (1.5-fold) in series [1] lay within 0.3 to 1 µM. Moreover, the “maximum fold (Fold) increase” value in the series with Smn protein was “* (maximum fold increase of ≤1.2)”.

As for `C[C@H]1CN(c2ccc3cc(-c4cn5ccc(C(F)(F)F)cc5n4)c(=O)oc3c2)CCN1` [Compound 268, 7-[(3S)-3-methylpiperazin-1-yl]-3-[7-(trifluoromethyl)imidazo[1,2-a]pyridin-2-yl]-2H-chromen-2-one], the melting point is 252 to 260 °C. Further, the EC (1.5-fold) in series [1] was in the range of 0.3 to 1 µM. The “maximum fold (Fold) increase” value with Smn protein is “* (maximum fold increase of ≤1.2)”.

Compound `CC1(C)CN(c2ccc3cc(-c4cn5cccc(F)c5n4)c(=O)oc3c2)CCN1` [Compound 507, 7-(3,3-dimethylpiperazin-1-yl)-3-(8-fluoroimidazo[1,2-a]pyridin-2-yl)-2H-chromen-2-one] had a melting point of 180 to 182 °C. For the same compound, the EC (1.5-fold) in series [1] fell in the range of 0.1 to 0.3 µM. Moreover, in the series with Smn protein, the EC1.5x (concentration giving 1.5-fold Smn protein increase) was < 300 nM; the “maximum fold (Fold) increase” value was “**** (fold increase between >1.5 and ≤1.65)”.

On to `Cc1cn2cc(-c3cc4ccc(N5CCN(C6COC6)CC5)cc4oc3=O)nc2c(C)n1` [Compound 823, 3-(6,8-dimethylimidazo[1,2-a]pyrazin-2-yl)-7-[4-(oxetan-3-yl)piperazin-1-yl]-2H-chromen-2-one], for which the melting point was 230 to 235 °C. In addition, the EC (1.5-fold) in series [1] lay in the range of 0.3 to 1 µM. In the series on Smn protein, the EC1.5x (concentration giving 1.5-fold Smn protein increase) is 1000 to 3000 nM; the “maximum fold (Fold) increase” value was “**** (fold increase between >1.5 and ≤1.65)”.

In turn, `CCN(CC)C1CCN(c2ccc3cc(-c4cn5cc(C)nc(C)c5n4)c(=O)oc3c2)CC1` [Compound 922, 7-[4-(diethylamino)piperidin-1-yl]-3-(6,8-dimethylimidazo[1,2-a]pyrazin-2-yl)-2H-chromen-2-one] came in with a melting point of 205 to 207 °C. In addition, the EC (1.5-fold) in series [1] was < 0.1 µM. In the series on Smn protein, the EC1.5x (concentration giving 1.5-fold Smn protein increase) lay in the range of 300 to 1000 nM; the “maximum fold (Fold) increase” value was “*** (fold increase between >1.35 and ≤1.5)”.

On to `CN1CCCN(c2ccc3cc(-c4cn5cccc(C(F)(F)F)c5n4)c(=O)oc3c2)CC1` [Compound 293, 7-(4-methyl-1,4-diazepan-1-yl)-3-[8-(trifluoromethyl)imidazo[1,2-a]pyridin-2-yl]-2H-chromen-2-one], for which the melting point lay in the range of 196 to 199 °C. Also, the EC (1.5-fold) in series [1] lay within 0.3 to 1 µM. The “maximum fold (Fold) increase” value in the series on Smn protein is given as “* (maximum fold increase of ≤1.2)”.

Turning to `O=c1oc2cc(N3CCNCC3)ccc2cc1-c1ccc(F)c(Cl)c1` [Compound 484, 3-(3-chloro-4-fluorophenyl)-7-(piperazin-1-yl)-2H-chromen-2-one], the melting point was in the range of 186 to 188 °C. The EC (1.5-fold) in series [1] is 0.3 to 1 µM. In addition, the “maximum fold (Fold) increase” value in the series with Smn protein was “* (maximum fold increase of ≤1.2)”.

Consider `Cn1cc2cc(-c3cc4ccc(C5CCN(CCO)CC5)cc4oc3=O)ccc2n1` [Compound 861, 7-[1-(2-hydroxyethyl)piperidin-4-yl]-3-(2-methyl-2H-indazol-5-yl)-2H-chromen-2-one], for which the melting point is 220 to 226 °C. Moreover, in series [1], the EC (1.5-fold) is < 0.1 µM. For the same compound, in the series on Smn protein, the EC1.5x (concentration giving 1.5-fold Smn protein increase) lay in the range of 300 to 1000 nM and the “maximum fold (Fold) increase” value is “***** (fold increase >1.65)”.

On to `CN1CCN(c2ccc3cc(-c4cn5ccc(C(F)(F)F)cc5n4)c(=O)oc3c2)CC1` [Compound 115, 7-(4-methylpiperazin-1-yl)-3-[7-(trifluoromethyl)imidazo[1,2-a]pyridin-2-yl]-2H-chromen-2-one], for which the melting point was in the range of 274 to 280 °C. In series [1], the EC (1.5-fold) lay within 0.3 to 1 µM. Also, in the series with Smn protein, the “maximum fold (Fold) increase” value was “*** (fold increase between >1.35 and ≤1.5)”.

Consider `Cc1cc2cc(-c3cc4ccc(N5CCN(C)CC5)cc4oc3=O)oc2c(C)n1` [Compound 763, 3-(5,7-dimethylfuro[2,3-c]pyridin-2-yl)-7-(4-methylpiperazin-1-yl)-2H-chromen-2-one], for which the melting point was 229 to 232 °C. In series [1], the EC (1.5-fold) was < 0.1 µM. Also, in the series with Smn protein, the EC1.5x (concentration giving 1.5-fold Smn protein increase) was < 300 nM; the “maximum fold (Fold) increase” value is “**** (fold increase between >1.5 and ≤1.65)”.

In turn, `Cc1ccc2nc(-c3cc4c(F)cc(N5CCNCC5)cc4oc3=O)cn2c1` [Cpd 162, 5-fluoro-3-(6-methylimidazo[1,2-a]pyridin-2-yl)-7-(piperazin-1-yl)-2H-chromen-2-one] gave a melting point of 265 to 270 °C. Also, the EC (1.5-fold) in series [1] was 0.1 to 0.3 µM. Besides, in the series with Smn protein, the EC1.5x (concentration giving 1.5-fold Smn protein increase) is 300 to 1000 nM; the “maximum fold (Fold) increase” value is “*** (fold increase between >1.35 and ≤1.5)”.

For `Cc1ccc2nc(-c3cc4ccc(N5CCCN(C)CC5)cc4oc3=O)cn2c1` [Compound 142, 7-(4-methyl-1,4-diazepan-1-yl)-3-(6-methylimidazo[1,2-a]pyridin-2-yl)-2H-chromen-2-one], the melting point is 175 to 180 °C. In series [1], the EC (1.5-fold) lay in the range of 1 to 3 µM. In addition, in the series with Smn protein, the EC1.5x (concentration giving 1.5-fold Smn protein increase) lay within 300 to 1000 nM; the “maximum fold (Fold) increase” value is “**** (fold increase between >1.5 and ≤1.65)”.

Compound `CCN(CCO)CCOc1ccc2cc(-c3cn4cc(C)nc(C)c4n3)c(=O)oc2c1` [Compound 938, 3-(6,8-dimethylimidazo[1,2-a]pyrazin-2-yl)-7-{2-[ethyl(2-hydroxyethyl)amino]ethoxy}-2H-chromen-2-one] yielded a melting point of 165 to 168 °C. For the same compound, the EC (1.5-fold) in series [1] is < 0.1 µM. For the same compound, in the series with Smn protein, the EC1.5x (concentration giving 1.5-fold Smn protein increase) is < 300 nM and the “maximum fold (Fold) increase” value is “***** (fold increase >1.65)”.

For `CCN1C[C@@H]2C[C@H]1CN2c1ccc2cc(-c3cn4cc(Cl)nc(C)c4n3)c(=O)oc2c1` [Compound 791, 3-(6-chloro-8-methylimidazo[1,2-a]pyrazin-2-yl)-7-[(1S,4S)-5-ethyl-2,5-diazabicyclo[2.2.1]hept-2-yl]-2H-chromen-2-one], the melting point lay within 135 to 138 °C. Further, the EC (1.5-fold) in series [1] was < 0.1 µM. In addition, in the series with Smn protein, the EC1.5x (concentration giving 1.5-fold Smn protein increase) lay within 1000 to 3000 nM; the “maximum fold (Fold) increase” value was “*** (fold increase between >1.35 and ≤1.5)”.

Regarding `Cc1cn2cc(-c3cc4ccc(OCCNC(C)C)cc4oc3=O)nc2c(C)n1` [Compound 877, 3-(6,8-dimethylimidazo[1,2-a]pyrazin-2-yl)-7-[2-(propan-2-ylamino)ethoxy]-2H-chromen-2-one], the melting point fell in the range of 202 to 207 °C. Also, in series [1], the EC (1.5-fold) is < 0.1 µM. Also, in the series with Smn protein, the EC1.5x (concentration giving 1.5-fold Smn protein increase) lay within 300 to 1000 nM; the “maximum fold (Fold) increase” value is “*** (fold increase between >1.35 and ≤1.5)”.

Compound `Cc1cn2cc(-c3cc4ccc(N5CC(N6CCCCC6C)C5)cc4oc3=O)nc2c(C)n1` (stereo not drawn) [Compound 942, 3-(6,8-dimethylimidazo[1,2-a]pyrazin-2-yl)-7-[3-(2-methylpiperidin-1-yl)azetidin-1-yl]-2H-chromen-2-one] gave a melting point of 220 to 228 °C. Further, in series [1], the EC (1.5-fold) is < 0.1 µM. Moreover, in the series with Smn protein, the EC1.5x (concentration giving 1.5-fold Smn protein increase) fell in the range of 1000 to 3000 nM; the “maximum fold (Fold) increase” value is “*** (fold increase between >1.35 and ≤1.5)”.

`Cc1cn2cc(-c3cc4ccc(N5CC[C@@H](N(C)C)C5)cc4oc3=O)nc2c(C)n1` [Compound 690, 7-[(3R)-3-(dimethylamino)pyrrolidin-1-yl]-3-(6,8-dimethylimidazo[1,2-a]pyrazin-2-yl)-2H-chromen-2-one] showed a melting point of 239 to 242 °C. Besides, in series [1], the EC (1.5-fold) was 0.1 to 0.3 µM. For the same compound, in the series with Smn protein, the EC1.5x (concentration giving 1.5-fold Smn protein increase) lay within 300 to 1000 nM; the “maximum fold (Fold) increase” value is “**** (fold increase between >1.5 and ≤1.65)”.
